Converted amounts (≈) assume the structure as drawn.
tested on: Aspergillus flavus; experiment: Ratio of miconazole MIC to compound MIC for Aspergillus flavus MTCC 277; format: functional; settings: not given

SMILES | Ratio
COc1ccc(C2=NN(C(C)=O)C(c3ccc(NC(=O)Nc4ccc(C(F)(F)F)cc4)cc3)C2)cc1OC (stereo not drawn) | 1.3
COc1ccc(C2=NN(C(C)=O)C(c3ccc(NS(=O)(=O)c4ccc(C(F)(F)F)cc4)cc3)C2)cc1OC (stereo not drawn) | 2
COc1ccc(C2=NN(C(C)=O)C(c3ccc(NS(=O)(=O)c4ccc(C(F)(F)F)cc4Cl)cc3)C2)cc1OC (stereo not drawn) | 1.5
COc1ccc(C2=NN(C(C)=O)C(c3ccc(NS(=O)(=O)c4ccc(C(F)(F)F)cc4Br)cc3)C2)cc1OC (stereo not drawn) | 2

tested on: Candida albicans; experiment: Antifungal activity against Candida albicans MTCC 227 after 2 to 3 days by agar well diffusion method; format: functional; settings: not given

SMILES | MIC
COc1ccc(C2=NN(C(C)=O)C(c3ccc(NC(=O)Nc4ccc(C(F)(F)F)cc4)cc3)C2)cc1OC (stereo not drawn) | 15 µg/mL (≈ 28.5 µM)
COc1ccc(C2=NN(C(C)=O)C(c3ccc(NS(=O)(=O)c4ccc(C(F)(F)F)cc4)cc3)C2)cc1OC (stereo not drawn) | 35 µg/mL (≈ 63.9 µM)
COc1ccc(C2=NN(C(C)=O)C(c3ccc(NS(=O)(=O)c4ccc(C(F)(F)F)cc4Cl)cc3)C2)cc1OC (stereo not drawn) | 40 µg/mL (≈ 68.7 µM)
COc1ccc(C2=NN(C(C)=O)C(c3ccc(NS(=O)(=O)c4ccc(C(F)(F)F)cc4Br)cc3)C2)cc1OC (stereo not drawn) | 20 µg/mL (≈ 31.9 µM)

tested on: Staphylococcus aureus; experiment: Ratio of ciprofloxacin MIC to compound MIC for Staphylococcus aureus MTCC 96; format: functional; settings: not given

SMILES | Ratio
COc1ccc(C2=NN(C(C)=O)C(c3ccc(NS(=O)(=O)c4ccc(C(F)(F)F)cc4Cl)cc3)C2)cc1OC (stereo not drawn) | 1.3
COc1ccc(C2=NN(C(C)=O)C(c3ccc(NS(=O)(=O)c4ccc(C(F)(F)F)cc4Br)cc3)C2)cc1OC (stereo not drawn) | 2

tested on: Escherichia coli; experiment: Ratio of ciprofloxacin MIC to compound MIC for Escherichia coli MTCC 443; format: functional; settings: not given

SMILES | Ratio
COc1ccc(C2=NN(C(C)=O)C(c3ccc(NS(=O)(=O)c4ccc(C(F)(F)F)cc4Cl)cc3)C2)cc1OC (stereo not drawn) | 1.5
COc1ccc(C2=NN(C(C)=O)C(c3ccc(NS(=O)(=O)c4ccc(C(F)(F)F)cc4Br)cc3)C2)cc1OC (stereo not drawn) | 1.5

tested on: Fusarium solani; experiment: Antifungal activity against Fusarium solani MTCC 350 after 2 to 3 days by agar well diffusion method; format: functional; settings: not given

SMILES | MIC
COc1ccc(C2=NN(C(C)=O)C(c3ccc(NC(=O)Nc4ccc(C(F)(F)F)cc4)cc3)C2)cc1OC (stereo not drawn) | 15 µg/mL (≈ 28.5 µM)
COc1ccc(C2=NN(C(C)=O)C(c3ccc(NS(=O)(=O)c4ccc(C(F)(F)F)cc4)cc3)C2)cc1OC (stereo not drawn) | 10 µg/mL (≈ 18.3 µM)
COc1ccc(C2=NN(C(C)=O)C(c3ccc(NS(=O)(=O)c4ccc(C(F)(F)F)cc4Cl)cc3)C2)cc1OC (stereo not drawn) | 10 µg/mL (≈ 17.2 µM)
COc1ccc(C2=NN(C(C)=O)C(c3ccc(NS(=O)(=O)c4ccc(C(F)(F)F)cc4Br)cc3)C2)cc1OC (stereo not drawn) | 10 µg/mL (≈ 16 µM)

tested on: Salmonella typhimurium; experiment: Antibacterial activity against Salmonella typhimurium MTCC 98 after 24 hrs by agar well diffusion method; format: functional, Salmonella enterica subsp. enterica serovar Typhimurium; settings: Salmonella enterica, MTCC 98, 24 h

SMILES | MIC
COc1ccc(C2=NN(C(C)=O)C(c3ccc(NC(=O)Nc4ccc(C(F)(F)F)cc4)cc3)C2)cc1OC (stereo not drawn) | 40 µg/mL (≈ 76 µM)
COc1ccc(C2=NN(C(C)=O)C(c3ccc(NS(=O)(=O)c4ccc(C(F)(F)F)cc4)cc3)C2)cc1OC (stereo not drawn) | 25 µg/mL (≈ 45.7 µM)
COc1ccc(C2=NN(C(C)=O)C(c3ccc(NS(=O)(=O)c4ccc(C(F)(F)F)cc4Cl)cc3)C2)cc1OC (stereo not drawn) | 15 µg/mL (≈ 25.8 µM)
COc1ccc(C2=NN(C(C)=O)C(c3ccc(NS(=O)(=O)c4ccc(C(F)(F)F)cc4Br)cc3)C2)cc1OC (stereo not drawn) | 10 µg/mL (≈ 16 µM)

tested on: THP-1; experiment: Antiinflammatory activity in human THP1 cells assessed as inhibition of LPS-stimulated TNFalpha production at 10 uM incubated for 30 mins prior to LPS-challenge measured 24 hrs post LPS challenge by ELISA; format: functional; settings: not given

SMILES | inhibition at 10 µM
COc1ccc(C2=NN(C(C)=O)C(c3ccc(NC(=O)Nc4ccc(C(F)(F)F)cc4)cc3)C2)cc1OC (stereo not drawn) | 3%
COc1ccc(C2=NN(C(C)=O)C(c3ccc(NS(=O)(=O)c4ccc(C(F)(F)F)cc4)cc3)C2)cc1OC (stereo not drawn) | 0%
COc1ccc(C2=NN(C(C)=O)C(c3ccc(NS(=O)(=O)c4ccc(C(F)(F)F)cc4Cl)cc3)C2)cc1OC (stereo not drawn) | 38%
COc1ccc(C2=NN(C(C)=O)C(c3ccc(NS(=O)(=O)c4ccc(C(F)(F)F)cc4Br)cc3)C2)cc1OC (stereo not drawn) | 0%

tested on: THP-1; experiment: Antiinflammatory activity in human THP1 cells assessed as inhibition of LPS-stimulated IL-6 production at 1 uM incubated for 30 mins prior to LPS-challenge measured 24 hrs post LPS-challenge by ELISA; format: functional; settings: not given

SMILES | inhibition at 1 µM
C[C@@H]1C[C@H]2[C@@H]3CCC4=CC(=O)C=C[C@]4(C)[C@@]3(F)[C@@H](O)C[C@]2(C)[C@@]1(O)C(=O)CO [DEXAMETHASONE] | 84%

tested on: THP-1; experiment: Antiinflammatory activity in human THP1 cells assessed as inhibition of LPS-stimulated TNFalpha production at 1 uM incubated for 30 mins prior to LPS-challenge measured 24 hrs post LPS-challenge by ELISA; format: functional; settings: not given

SMILES | inhibition at 1 µM
C[C@@H]1C[C@H]2[C@@H]3CCC4=CC(=O)C=C[C@]4(C)[C@@]3(F)[C@@H](O)C[C@]2(C)[C@@]1(O)C(=O)CO [DEXAMETHASONE] | 76%

tested on: Bacillus subtilis; experiment: Antibacterial activity against Bacillus subtilis MTCC 441 after 24 hrs by agar well diffusion method; format: functional; settings: MTCC 441, 24 h

SMILES | MIC
COc1ccc(C2=NN(C(C)=O)C(c3ccc(NC(=O)Nc4ccc(C(F)(F)F)cc4)cc3)C2)cc1OC (stereo not drawn) | 25 µg/mL (≈ 47.5 µM)
COc1ccc(C2=NN(C(C)=O)C(c3ccc(NS(=O)(=O)c4ccc(C(F)(F)F)cc4)cc3)C2)cc1OC (stereo not drawn) | 55 µg/mL (≈ 100 µM)
COc1ccc(C2=NN(C(C)=O)C(c3ccc(NS(=O)(=O)c4ccc(C(F)(F)F)cc4Cl)cc3)C2)cc1OC (stereo not drawn) | 10 µg/mL (≈ 17.2 µM)
COc1ccc(C2=NN(C(C)=O)C(c3ccc(NS(=O)(=O)c4ccc(C(F)(F)F)cc4Br)cc3)C2)cc1OC (stereo not drawn) | 15 µg/mL (≈ 23.9 µM)

tested on: Bacillus subtilis; experiment: Ratio of ciprofloxacin MIC to compound MIC for Bacillus subtilis MTCC 441; format: functional; settings: not given

SMILES | Ratio
COc1ccc(C2=NN(C(C)=O)C(c3ccc(NS(=O)(=O)c4ccc(C(F)(F)F)cc4Cl)cc3)C2)cc1OC (stereo not drawn) | 1.5

tested on: Salmonella typhimurium; experiment: Ratio of ciprofloxacin MIC to compound MIC for Salmonella typhimurium MTCC 98; format: functional, Salmonella enterica subsp. enterica serovar Typhimurium; settings: not given

SMILES | Ratio
COc1ccc(C2=NN(C(C)=O)C(c3ccc(NS(=O)(=O)c4ccc(C(F)(F)F)cc4Cl)cc3)C2)cc1OC (stereo not drawn) | 1.3
COc1ccc(C2=NN(C(C)=O)C(c3ccc(NS(=O)(=O)c4ccc(C(F)(F)F)cc4Br)cc3)C2)cc1OC (stereo not drawn) | 2

tested on: THP-1; experiment: Antiinflammatory activity in human THP1 cells assessed as inhibition of LPS-stimulated IL-6 production at 10 uM incubated for 30 mins prior to LPS-challenge measured 24 hrs post LPS-challenge by ELISA; format: functional; settings: not given

SMILES | inhibition at 10 µM
COc1ccc(C2=NN(C(C)=O)C(c3ccc(NC(=O)Nc4ccc(C(F)(F)F)cc4)cc3)C2)cc1OC (stereo not drawn) | 21%
COc1ccc(C2=NN(C(C)=O)C(c3ccc(NS(=O)(=O)c4ccc(C(F)(F)F)cc4)cc3)C2)cc1OC (stereo not drawn) | 0%
COc1ccc(C2=NN(C(C)=O)C(c3ccc(NS(=O)(=O)c4ccc(C(F)(F)F)cc4Cl)cc3)C2)cc1OC (stereo not drawn) | 55%
COc1ccc(C2=NN(C(C)=O)C(c3ccc(NS(=O)(=O)c4ccc(C(F)(F)F)cc4Br)cc3)C2)cc1OC (stereo not drawn) | 8%

tested on: Aspergillus niger; experiment: Ratio of miconazole MIC to compound MIC for Aspergillus niger MTCC 281; format: functional; settings: not given

SMILES | Ratio
COc1ccc(C2=NN(C(C)=O)C(c3ccc(NS(=O)(=O)c4ccc(C(F)(F)F)cc4Br)cc3)C2)cc1OC (stereo not drawn) | 1.5

tested on: Aspergillus niger; experiment: Antifungal activity against Aspergillus niger MTCC 281 after 2 to 3 days by agar well diffusion method; format: functional; settings: not given

SMILES | MIC
COc1ccc(C2=NN(C(C)=O)C(c3ccc(NC(=O)Nc4ccc(C(F)(F)F)cc4)cc3)C2)cc1OC (stereo not drawn) | 25 µg/mL (≈ 47.5 µM)
COc1ccc(C2=NN(C(C)=O)C(c3ccc(NS(=O)(=O)c4ccc(C(F)(F)F)cc4)cc3)C2)cc1OC (stereo not drawn) | 20 µg/mL (≈ 36.5 µM)
COc1ccc(C2=NN(C(C)=O)C(c3ccc(NS(=O)(=O)c4ccc(C(F)(F)F)cc4Cl)cc3)C2)cc1OC (stereo not drawn) | 15 µg/mL (≈ 25.8 µM)
COc1ccc(C2=NN(C(C)=O)C(c3ccc(NS(=O)(=O)c4ccc(C(F)(F)F)cc4Br)cc3)C2)cc1OC (stereo not drawn) | 10 µg/mL (≈ 16 µM)

tested on: Staphylococcus aureus; experiment: Antibacterial activity against Staphylococcus aureus MTCC 96 after 24 hrs by agar well diffusion method; format: functional; settings: MTCC 96, 24 h

SMILES | MIC
COc1ccc(C2=NN(C(C)=O)C(c3ccc(NC(=O)Nc4ccc(C(F)(F)F)cc4)cc3)C2)cc1OC (stereo not drawn) | 25 µg/mL (≈ 47.5 µM)
COc1ccc(C2=NN(C(C)=O)C(c3ccc(NS(=O)(=O)c4ccc(C(F)(F)F)cc4)cc3)C2)cc1OC (stereo not drawn) | 70 µg/mL (≈ 128 µM)
COc1ccc(C2=NN(C(C)=O)C(c3ccc(NS(=O)(=O)c4ccc(C(F)(F)F)cc4Cl)cc3)C2)cc1OC (stereo not drawn) | 15 µg/mL (≈ 25.8 µM)
COc1ccc(C2=NN(C(C)=O)C(c3ccc(NS(=O)(=O)c4ccc(C(F)(F)F)cc4Br)cc3)C2)cc1OC (stereo not drawn) | 10 µg/mL (≈ 16 µM)

tested on: Escherichia coli; experiment: Antibacterial activity against Escherichia coli MTCC 443 after 24 hrs by agar well diffusion method; format: functional; settings: MTCC 443, 24 h

SMILES | MIC
COc1ccc(C2=NN(C(C)=O)C(c3ccc(NC(=O)Nc4ccc(C(F)(F)F)cc4)cc3)C2)cc1OC (stereo not drawn) | 15 µg/mL (≈ 28.5 µM)
COc1ccc(C2=NN(C(C)=O)C(c3ccc(NS(=O)(=O)c4ccc(C(F)(F)F)cc4)cc3)C2)cc1OC (stereo not drawn) | 35 µg/mL (≈ 63.9 µM)
COc1ccc(C2=NN(C(C)=O)C(c3ccc(NS(=O)(=O)c4ccc(C(F)(F)F)cc4Cl)cc3)C2)cc1OC (stereo not drawn) | 10 µg/mL (≈ 17.2 µM)
COc1ccc(C2=NN(C(C)=O)C(c3ccc(NS(=O)(=O)c4ccc(C(F)(F)F)cc4Br)cc3)C2)cc1OC (stereo not drawn) | 10 µg/mL (≈ 16 µM)

tested on: Candida albicans; experiment: Ratio of miconazole MIC to compound MIC for Candida albicans MTCC 227; format: functional; settings: not given

SMILES | Ratio
COc1ccc(C2=NN(C(C)=O)C(c3ccc(NC(=O)Nc4ccc(C(F)(F)F)cc4)cc3)C2)cc1OC (stereo not drawn) | 1.3

tested on: Fusarium solani; experiment: Ratio of miconazole MIC to compound MIC for Fusarium solani MTCC 350; format: functional; settings: not given

SMILES | Ratio
COc1ccc(C2=NN(C(C)=O)C(c3ccc(NS(=O)(=O)c4ccc(C(F)(F)F)cc4)cc3)C2)cc1OC (stereo not drawn) | 1.5
COc1ccc(C2=NN(C(C)=O)C(c3ccc(NS(=O)(=O)c4ccc(C(F)(F)F)cc4Cl)cc3)C2)cc1OC (stereo not drawn) | 1.3
COc1ccc(C2=NN(C(C)=O)C(c3ccc(NS(=O)(=O)c4ccc(C(F)(F)F)cc4Br)cc3)C2)cc1OC (stereo not drawn) | 1.5

tested on: Aspergillus flavus; experiment: Antifungal activity against Aspergillus flavus MTCC 277 after 2 to 3 days by agar well diffusion method; format: functional; settings: not given

SMILES | MIC
COc1ccc(C2=NN(C(C)=O)C(c3ccc(NC(=O)Nc4ccc(C(F)(F)F)cc4)cc3)C2)cc1OC (stereo not drawn) | 15 µg/mL (≈ 28.5 µM)
COc1ccc(C2=NN(C(C)=O)C(c3ccc(NS(=O)(=O)c4ccc(C(F)(F)F)cc4)cc3)C2)cc1OC (stereo not drawn) | 10 µg/mL (≈ 18.3 µM)
COc1ccc(C2=NN(C(C)=O)C(c3ccc(NS(=O)(=O)c4ccc(C(F)(F)F)cc4Cl)cc3)C2)cc1OC (stereo not drawn) | 15 µg/mL (≈ 25.8 µM)
COc1ccc(C2=NN(C(C)=O)C(c3ccc(NS(=O)(=O)c4ccc(C(F)(F)F)cc4Br)cc3)C2)cc1OC (stereo not drawn) | 10 µg/mL (≈ 16 µM)

From ChEMBL document CHEMBL2157914, “Synthesis, anti-inflammatory and antimicrobial evaluation of novel 1-acetyl-3,5-diaryl-4,5-dihydro (1H) pyrazole derivatives bearing urea, thiourea and sulfonamide moieties” (2012)
